Data: patent US8987486B2, “Trans-2-decenoic acid derivative and pharmaceutical agent containing the same” (Nagoya Industrial Science Research Institute, priority 2010, dated 2015)

Assays:
[1] = system: PC12 cells; test: Evaluation using PC12 cells; immunostaining method for MAPK phosphorylation; format: cell-based; settings: 30 minutes
Method in brief: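 PC12 cells in DMEM with 1% FBS, exposed to compound for 30 min after 12–16 h in that medium; fixed and immunostained for phospho-p42/44 MAPK, nuclei counterstained with Hoechst. Value is percentage of pMAPK-positive cells (above a luminance threshold) among Hoechst-positive cells, from four images per coverslip.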

[2] = system: paclitaxel-induced peripheral nerve disorder rats; test: von Frey test in paclitaxel-induced peripheral nerve disorder rats; format: in vivo; settings: Rattus norvegicus, ip; single intraperitoneal dose of 300 μ/kg; higher of the thresholds after 1 hour and 5 hours; normal threshold 15; read-out: Recovery rate of 50% reaction threshold value (%)
Method in brief: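 Male SD rats (six weeks, n=6/group) got paclitaxel 2 mg/kg i.p. every other day ×4. On days 18–25 or 20–27, test drug was given i.p. as a single […] dose. Von Frey up-down 50% thresholds (right hind paw) were taken pre-dose and at 1, 5, 24 h. Recovery rate used the higher 1/5 h value and a normal threshold of 15.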

CCCCCCC/C=C/C(=O)NCCN(CC)CC [Compound 37, (E)-N-2-(diethylamino)ethyl dec-2-enamide]
Rate of pMAPK-positive cells (%) ([1]; 62.5 μg/mL): 6%
Rate of pMAPK-positive cells (%) ([1]; 125 μg/mL): 43%
Rate of pMAPK-positive cells (%) ([1]; 250 μg/mL): 48%
Rate of pMAPK-positive cells (%) ([1]; 500 μg/mL): 0%
inhibition in vivo at 0.3 mg/kg [2]: 73.1%

CCCCCCC/C=C/C(=O)NCCN(C)C [Compound 36, (E)-N-2-(dimethylamino)ethyl dec-2-enamide]
Rate of pMAPK-positive cells (%) ([1]; 62.5 μg/mL): 12%
Rate of pMAPK-positive cells (%) ([1]; 125 μg/mL): 70%
Rate of pMAPK-positive cells (%) ([1]; 250 μg/mL): 89%
Rate of pMAPK-positive cells (%) ([1]; 500 μg/mL): 43%
inhibition in vivo at 0.3 mg/kg [2]: 72.1%

CCCCCCC/C=C/C(=O)OCCN(C)C [Compound 1, (E)-2-(dimethylamino)ethyl dec-2-enoate]
Rate of pMAPK-positive cells (%) ([1]; 62.5 μg/mL): 4%
Rate of pMAPK-positive cells (%) ([1]; 125 μg/mL): 12%
Rate of pMAPK-positive cells (%) ([1]; 250 μg/mL): 36%
Rate of pMAPK-positive cells (%) ([1]; 500 μg/mL): 32%
inhibition in vivo at 0.3 mg/kg [2]: 48.3%

CCCCCCC/C=C/C(=O)OCCN(CC)CC [Compound 6, (E)-2-(diethylamino)ethyl dec-2-enoate]
Rate of pMAPK-positive cells (%) ([1]; 62.5 μg/mL): 31%
Rate of pMAPK-positive cells (%) ([1]; 125 μg/mL): 51%

CCCCCCC/C=C/C(=O)SCCN(C)C [Compound 55, (E)-S-2-(dimethylamino)ethyl dec-2-enethioate]
Rate of pMAPK-positive cells (%) ([1]; 62.5 μg/mL): 20%
Rate of pMAPK-positive cells (%) ([1]; 125 μg/mL): 46%
Rate of pMAPK-positive cells (%) ([1]; 250 μg/mL): 41%
Rate of pMAPK-positive cells (%) ([1]; 500 μg/mL): 10%
inhibition in vivo at 0.3 mg/kg [2]: 45.4%
